Source: patent US8877748B2, “Heterocyclic fused anthraquinone derivatives, manufacturing method and pharmaceutical composition using thereof” (National Defense Medical Center, priority 2012, dated 2014)

How the values were obtained:
[1] = tested on: MDA-MB-231/ATCC; experiment: NCI one-dose screening, breast cancer MDA-MB-231/ATCC; assay type: cell-based, human; conditions: 10 μM
[2] = tested on: SN12C; experiment: NCI one-dose screening, renal cancer SN12C; assay type: cell-based, human; conditions: 10 μM
[3] = tested on: MALME-3M; experiment: NCI one-dose screening, melanoma MALME-3M; assay type: cell-based, human; conditions: 10 μM
[4] = tested on: PC-3 prostate cancer cell line; experiment: SRB assay cell viability, PC-3 prostate cancer cell line; assay type: cell-based, human; conditions: PC-3 prostate cancer cell line, Table II prints no unit, μM printed, read-out: SRB assay: 50% inhibition of cancer cell proliferation of sample concentration (IC50) of PC-3 prostate cancer cell line
[5] = tested on: OVCAR-5; experiment: NCI one-dose screening, ovarian cancer OVCAR-5; assay type: cell-based, human; conditions: 10 μM
[6] = tested on: SK-MEL-2; experiment: NCI one-dose screening, melanoma SK-MEL-2; assay type: cell-based, human; conditions: 10 μM
[7] = tested on: SNB-75; experiment: NCI one-dose screening, CNS cancer SNB-75; assay type: cell-based, human; conditions: 10 μM
[8] = tested on: UACC-257; experiment: NCI one-dose screening, melanoma UACC-257; assay type: cell-based, human; conditions: 10 μM
[9] = tested on: NCI-H522; experiment: NCI one-dose screening, non-small cell lung cancer NCI-H522; assay type: cell-based, human; conditions: 10 μM
[10] = tested on: NCl/ADR-RES; experiment: NCI one-dose screening, breast cancer NCl/ADR-RES; assay type: cell-based, human; conditions: 10 μM; listed under Ovarian cancer
[11] = tested on: LOX IMVI; experiment: NCI one-dose screening, melanoma LOX IMVI; assay type: cell-based, human; conditions: 10 μM
[12] = tested on: MDA-MB-468; experiment: NCI one-dose screening, breast cancer MDA-MB-468; assay type: cell-based, human; conditions: 10 μM
[13] = tested on: RXF, 393; experiment: NCI one-dose screening, renal cancer RXF, 393; assay type: cell-based, human; conditions: 10 μM
[14] = tested on: COLO 205; experiment: NCI one-dose screening, colon cancer COLO 205; assay type: cell-based, human; conditions: 10 μM
[15] = tested on: NCI-H460; experiment: NCI one-dose screening, non-small cell lung cancer NCI-H460; assay type: cell-based, human; conditions: 10 μM
[16] = tested on: A549/ATCC; experiment: NCI one-dose screening, non-small cell lung cancer A549/ATCC; assay type: cell-based, human; conditions: 10 μM
[17] = tested on: NCI-H23; experiment: NCI one-dose screening, non-small cell lung cancer NCI-H23; assay type: cell-based, human; conditions: 10 μM
[18] = tested on: SNB-19; experiment: NCI one-dose screening, CNS cancer SNB-19; assay type: cell-based, human; conditions: 10 μM
[19] = tested on: ACHN; experiment: NCI one-dose screening, renal cancer ACHN; assay type: cell-based, human; conditions: 10 μM
[20] = tested on: SK-MEL-5; experiment: NCI one-dose screening, melanoma SK-MEL-5; assay type: cell-based, human; conditions: 10 μM
[21] = NCI one-dose screening, renal cancer A489; assay type: cell-based, human; conditions: 10 μM
[22] = tested on: CAKI-1; experiment: NCI one-dose screening, renal cancer CAKI-1; assay type: cell-based, human; conditions: 10 μM
[23] = tested on: PC-3; experiment: NCI one-dose screening, prostate cancer PC-3; assay type: cell-based, human; conditions: 10 μM
[24] = tested on: SF-539; experiment: NCI one-dose screening, CNS cancer SF-539; assay type: cell-based, human; conditions: 10 μM
[25] = tested on: SF-295; experiment: NCI one-dose screening, CNS cancer SF-295; assay type: cell-based, human; conditions: 10 μM
[26] = tested on: SK-OV-3; experiment: NCI one-dose screening, ovarian cancer SK-OV-3; assay type: cell-based, human; conditions: 10 μM
[27] = tested on: PRMI-8226 cell line; experiment: NCI one-dose screening, leukemia PRMI-8226; assay type: cell-based, human; conditions: 10 μM
[28] = tested on: BT-549; experiment: NCI one-dose screening, breast cancer BT-549; assay type: cell-based, human; conditions: 10 μM
[29] = tested on: EKVX; experiment: NCI one-dose screening, non-small cell lung cancer EKVX; assay type: cell-based, human; conditions: 10 μM
[30] = tested on: UO-31; experiment: NCI one-dose screening, renal cancer UO-31; assay type: cell-based, human; conditions: 10 μM
[31] = tested on: HCT-15; experiment: NCI one-dose screening, colon cancer HCT-15; assay type: cell-based, human; conditions: 10 μM
[32] = tested on: HT29; experiment: NCI one-dose screening, colon cancer HT29; assay type: cell-based, human; conditions: 10 μM
[33] = tested on: MCF7; experiment: NCI one-dose screening, breast cancer MCF7; assay type: cell-based, human; conditions: 10 μM
[34] = tested on: OVCAR-8; experiment: NCI one-dose screening, ovarian cancer OVCAR-8; assay type: cell-based, human; conditions: 10 μM
[35] = tested on: KM12; experiment: NCI one-dose screening, colon cancer KM12; assay type: cell-based, human; conditions: 10 μM
[36] = tested on: M14; experiment: NCI one-dose screening, melanoma M14; assay type: cell-based, human; conditions: 10 μM
[37] = tested on: SR; experiment: NCI one-dose screening, leukemia SR; assay type: cell-based, human; conditions: 10 μM
[38] = tested on: UACC-62; experiment: NCI one-dose screening, melanoma UACC-62; assay type: cell-based, human; conditions: 10 μM
[39] = tested on: DU145; experiment: NCI one-dose screening, prostate cancer DU145; assay type: cell-based, human; conditions: 10 μM
[40] = tested on: OVCAR-3; experiment: NCI one-dose screening, ovarian cancer OVCAR-3; assay type: cell-based, human; conditions: 10 μM
[41] = tested on: HL-60, TB; experiment: NCI one-dose screening, leukemia HL-60, TB; assay type: cell-based, human; conditions: 10 μM
[42] = tested on: MOLT-4; experiment: NCI one-dose screening, leukemia MOLT-4; assay type: cell-based, human; conditions: 10 μM
[43] = tested on: HOP-62; experiment: NCI one-dose screening, non-small cell lung cancer HOP-62; assay type: cell-based, human; conditions: 10 μM
[44] = tested on: HOP-92; experiment: NCI one-dose screening, non-small cell lung cancer HOP-92; assay type: cell-based, human; conditions: 10 μM
[45] = tested on: IGROV1; experiment: NCI one-dose screening, ovarian cancer IGROV1; assay type: cell-based, human; conditions: 10 μM
[46] = tested on: U251; experiment: NCI one-dose screening, CNS cancer U251; assay type: cell-based, human; conditions: 10 μM
[47] = tested on: SK-MEL-28; experiment: NCI one-dose screening, melanoma SK-MEL-28; assay type: cell-based, human; conditions: 10 μM
[48] = tested on: SF-268; experiment: NCI one-dose screening, CNS cancer SF-268; assay type: cell-based, human; conditions: 10 μM
[49] = tested on: HCC-2998; experiment: NCI one-dose screening, colon cancer HCC-2998; assay type: cell-based, human; conditions: 10 μM
[50] = tested on: human tumor cell lines; experiment: NCI one-dose screening, Mean / Delta / Range of growth percent over all tested cell lines; assay type: cell-based; conditions: 10 μM
[51] = tested on: T-47D; experiment: NCI one-dose screening, breast cancer T-47D; assay type: cell-based, human; conditions: 10 μM
[52] = tested on: HCT-116; experiment: NCI one-dose screening, colon cancer HCT-116; assay type: cell-based, human; conditions: 10 μM
[53] = tested on: MDA, -MB-435; experiment: NCI one-dose screening, breast cancer MDA, -MB-435; assay type: cell-based, human; conditions: 10 μM; listed under Melanoma
[54] = tested on: K562cell line; experiment: NCI one-dose screening, leukemia K562; assay type: cell-based, human; conditions: 10 μM
[55] = tested on: 786-O; experiment: NCI one-dose screening, renal cancer 786-O; assay type: cell-based, human; conditions: 10 μM
[56] = tested on: HS 578-T; experiment: NCI one-dose screening, breast cancer HS 578-T; assay type: cell-based, human; conditions: 10 μM; Breast cancer
[57] = tested on: NCI-H226; experiment: NCI one-dose screening, non-small cell lung cancer NCI-H226; assay type: cell-based, human; conditions: 10 μM
[58] = tested on: TK-10; experiment: NCI one-dose screening, renal cancer TK-10; assay type: cell-based, human; conditions: 10 μM

O=C1c2ccccc2C(=O)c2c1cc(Sc1ccccc1Br)c1nsnc21 [C27, 4-(2-bromo-phenylthio)anthra[2,1-c] [1,2,5]thiadiazol oxazole-6,11-dione]
Growth Percent MDA-MB-231/ATCC [1]: 16.85%
Growth Percent SN12C [2]: 22.56%
Growth Percent MALME-3M [3]: 35.27%
IC50 [4]: 5.76 µM
Growth Percent OVCAR-5 [5]: 120.52%
Growth Percent SK-MEL-2 [6]: 35.02%
Growth Percent SNB-75 [7]: 47.20%
Growth Percent UACC-257 [8]: 4.75%
Growth Percent NCI-H522 [9]: 30.77%
Growth Percent NCI/ADR-RES [10]: −29.94%
Growth Percent LOX IMVI [11]: −15.34%
Growth Percent MDA-MB-468 [12]: −79.88%
Growth Percent RXF 393 [13]: −8.53%
Growth Percent COLO 205 [14]: 97.36%
Growth Percent NCI-H460 [15]: 58.24%
Growth Percent A549/ATCC [16]: 95.37%
Growth Percent NCI-H23 [17]: 18.02%
Growth Percent SNB-19 [18]: 71.38%
Growth Percent ACHN [19]: 25.50%
Growth Percent SK-MEL-5 [20]: 46.26%
Growth Percent A498 [21]: 24.25%
Growth Percent CAKI-1 [22]: 29.67%
Growth Percent PC-3 [23]: 4.23%
Growth Percent SF-539 [24]: −5.66%
Growth Percent SF-295 [25]: 100.07%
Growth Percent SK-OV-3 [26]: 66.68%
Growth Percent RPMI-8226 [27]: 9.40%
Growth Percent BT-549 [28]: 52.19%
Growth Percent EKVX [29]: 77.74%
Growth Percent UO-31 [30]: 56.15%
Growth Percent HCT-15 [31]: 39.74%
Growth Percent HT29 [32]: 96.46%
Growth Percent MCF7 [33]: −6.39%
Growth Percent OVCAR-8 [34]: 2.47%
Growth Percent KM12 [35]: 57.85%
Growth Percent M14 [36]: 59.45%
Growth Percent SR [37]: 2.94%
Growth Percent UACC-62 [38]: 39.58%
Growth Percent DU145 [39]: 50.57%
Growth Percent OVCAR-3 [40]: −65.85%
Growth Percent HL-60(TB) [41]: −43.96%
Growth Percent MOLT-4 [42]: 29.67%
Growth Percent HOP-62 [43]: 4.88%
Growth Percent HOP-92 [44]: 37.57%
Growth Percent IGROV1 [45]: 27.94%
Growth Percent U251 [46]: 11.49%
Growth Percent SK-MEL-28 [47]: 64.65%
Growth Percent SF-268 [48]: −5.11%
Growth Percent HCC-2998 [49]: 78.44%
Growth Percent Delta ([50]; delta over all cell lines): 109.49%
Growth Percent Mean ([50]; mean over all cell lines): 29.61%
Growth Percent Range ([50]; range over all cell lines): 200.40%
Growth Percent T-47D [51]: −33.05%
Growth Percent HCT-116 [52]: 16.62%
Growth Percent MDA-MB-435 [53]: −72.95%
Growth Percent K562 [54]: 29.66%
Growth Percent 786-0 [55]: −6.19%
Growth Percent HS 578T [56]: 54.25%
Growth Percent NCI-H226 [57]: 92.07%
Growth Percent TK-10 [58]: 76.52%
